Among the data in the supplement of paper PMC10307832 are relative viability values, retold here.

Holding throughout (assay): relative viability (nuclei count vs DMSO), 5 days (fraction); higher = more cells survive
Compound in assay [1]: CCOC1=CC=CC=C1N=NC2=C(NN(C2=O)C3=NC(=CS3)C4=CC=CC=C4)C [BAM7] + Cc1nc(Nc2ncc(C(=O)Nc3c(C)cccc3Cl)s2)cc(N2CCN(CCO)CC2)n1 [Dasatinib] (partner 0.075 µM)
In short, it runs like this:
(§1)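 One day after seeding in 1536-well plates, lung cancer cell lines were dosed by pin tool. Dosing was either single-drug or a fixed anchor-drug dose plus five library-drug doses (not always all listed) in √10 steps. After 5 days, nuclei were stained in one fix-and-stain step and counted on 4× images, and relative viability is the nuclei count of treated wells over that of vehicle wells, given as the median of duplicate plates.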

Compound in assay [2]: CCn1c(-c2nonc2N)nc2c(C#CC(C)(C)O)ncc(OC[C@H]3CCCNC3)c21 + CC(=O)Nc1cccc(-n2c(=O)n(C3CC3)c(=O)c3c(Nc4ccc(I)cc4F)n(C)c(=O)c(C)c32)c1 [Trametinib] (partner 0.02 µM)
Put shortly: as §1

Compound in assay [3]: CCn1c(-c2nonc2N)nc2c(C#CC(C)(C)O)ncc(OC[C@H]3CCCNC3)c21 + CC1(C)CCC(c2ccc(Cl)cc2)=C(CN2CCN(c3ccc(C(=O)NS(=O)(=O)c4ccc(N[C@H](CCN5CCOCC5)CSc5ccccc5)c(S(=O)(=O)C(F)(F)F)c4)cc3)CC2)C1 [Navitoclax] (partner 0.5 µM)
In short, it runs like this:
as §1

Compound in assay [4]: CCn1c(-c2nonc2N)nc2c(C#CC(C)(C)O)ncc(OC[C@H]3CCCNC3)c21 + COc1cccc2cc(-c3nc([C@H]4CC[C@H](C(=O)O)CC4)n4ncnc(N)c34)[nH]c12 [OSI-027] (partner 0.5 µM)
Put shortly: as §1

With UMC-11, the relative viability turned out to be 0.511 in assay [1] (first compound 0.5 µM); 0.509 in assay [1] (first compound 5 µM); 0.449 in assay [1] (first compound 15.81 µM); 0.479 in assay [1] (first compound 50 µM); 0.765 in assay [2] (first compound 0.01 µM); 0.701 in assay [2] (first compound 0.03162 µM). For the same cell line, the relative viability was 0.754 in assay [2] (first compound 0.1 µM); 0.754 in assay [2] (first compound 0.3162 µM); 0.618 in assay [2] (first compound 1 µM); 0.323 in assay [3] (first compound 0.01 µM); 0.288 in assay [3] (first compound 0.03162 µM); 0.323 in assay [3] (first compound 0.1 µM). Further, the relative viability in assay [3] (first compound 0.3162 µM) was 0.29; in assay [3] (first compound 1 µM), 0.3; in assay [4] (first compound 0.01 µM), 0.512; in assay [4] (first compound 0.03162 µM), 0.489; in assay [4] (first compound 0.1 µM), 0.515; in assay [4] (first compound 0.3162 µM), 0.423. In addition, the relative viability in assay [4] (first compound 1 µM) came out at 0.496.
